Reference: US20240286998A1, “F[…], ANALOGUES THEREOF, AND METHODS USING SAME” (Saint Joseph's University, priority 2021, published 2024)
Structures can show the parent of a compound that is named as a salt. Where two headings read alike, the source gives them in different places.

Columns and labels:
[1] = test system: C57BL/6J mice; experiment: Head-Twitch Response (HTR) in mice; format: in vivo; details: for HTR counts over baseline / induction of HTR: compared to vehicle; for Duration of HTR above baseline: C57BL/6J mice, ascending and descending arm dose; for ED50: Mus musculus, ip, 0.5 h
Protocol: Male C57BL/6J mice (6-8 weeks old) were obtained from Jackson Laboratories (Bar Harbor, ME) and housed in a vivarium at the University of California San Diego, an AAALAC-approved animal facility that meets all federal and state requirements for care and treatment of laboratory animals. All animal experiments were carried out in accordance with NIH guidelines and were approved by the UCSD Institutional Animal Care and Use Committee. Mice were housed up to four per cage in a climate-controlled room on a reverse-light cycle (lights on at 1900 h, off at 0700 h). Animals were provided with ad libitum access to food and water, with the exception of during behavioral testing.
Testing was conducted between 1000 and 1800 h. Head movements were recorded using a head-mounted magnet and a magnetometer coil as described in Halberstadt et al. (Psychopharmacology, 2013, 227(4):727-739). For the head mounted magnet, mice were anesthetized, an incision was made in the scalp, and a neodymium magnet was attached to the dorsal surface of the cranium using dental cement. Following a 2-week recovery period, behavioral experiments were conducted in a well-lit room. At least 7 days occurred between sessions to avoid any carryover effects. Test substances (i.e., dimethyltryptamine (DMT), diethyltryptamine (DET), psilocybin, 6-fluoro-diethyltryptamine (6-F-DET), compounds 3-4, 6, 9, 12-13, 22, 33, 41, 69, 88, 166, and 178) were administered intraperitoneally (IP) at a volume of 5 mL/kg. Mice were treated with vehicle (saline) or 6 doses of the test compound and then placed in a glass cylinder surrounded by a magnetometer coil and tested for 30 min. Coil voltage was filtered (1 kHz lowpass), digitized (20 kHz sampling rate) and saved to disk using a Powerlab/8SP with LabChart v 7.3.2 (ADInstruments, Colorado Springs, CO).
The entire 30 min recordings were examined for head twitches. Established procedures based on artificial intelligence were used to identify head twitches in the recordings (Scientific Reports, 2020, 10(1):1-12). HTR counts were analyzed using one-way analyses of variance (ANOVA), followed by post hoc pairwise comparisons between individual groups and vehicle using Dunnett's multiple comparisons test. […] Median effective doses (ED50 values) and 95% confidence intervals (95% CI) were calculated using nonlinear regression (Prism 9.0.2, GraphPad Software, San Diego, CA) (Table 4 and FIGS. 1-3).

[2] = target: 5-HT1A (Homo sapiens (Human), UniProt P08908); experiment: 5-HT1A Gi/o-mediated cAMP inhibition, GloSensor assay; format: cell-based; details: for 5-HT1A-cAMP Emax (% 5-HT): cAMP inhibition, 0.2 μM isoproterenol, IA = Inactive
[3] = target: 5-HT2C (Homo sapiens (Human), UniProt P28335); experiment: 5-HT2C Gq-mediated calcium flux functional assay; format: cell-based
Sequence of 5-HT2C (P28335 whole entry, looked up): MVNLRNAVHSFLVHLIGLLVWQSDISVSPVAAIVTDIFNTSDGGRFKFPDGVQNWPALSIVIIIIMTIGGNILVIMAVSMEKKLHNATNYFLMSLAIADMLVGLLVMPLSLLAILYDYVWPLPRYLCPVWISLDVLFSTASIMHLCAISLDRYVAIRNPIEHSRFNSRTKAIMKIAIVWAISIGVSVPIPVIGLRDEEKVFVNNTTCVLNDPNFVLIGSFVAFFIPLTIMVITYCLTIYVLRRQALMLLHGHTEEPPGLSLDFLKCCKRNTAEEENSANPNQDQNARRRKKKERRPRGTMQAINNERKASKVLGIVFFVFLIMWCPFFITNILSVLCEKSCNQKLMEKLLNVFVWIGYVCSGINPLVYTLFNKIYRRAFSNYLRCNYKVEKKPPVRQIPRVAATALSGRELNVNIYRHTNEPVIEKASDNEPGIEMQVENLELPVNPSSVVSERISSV

[4] = target: Serotonin 5-HT2A (human) (Homo sapiens (Human), UniProt P28223); experiment: 5-HT2A receptor binding, [3H]-ketanserin competition in membrane fractions; details: 1 nM [3H]-ketanserin, Cheng-Prusoff, N=1-3
[5] = target: 5-HT2A (Homo sapiens (Human), UniProt P28223); experiment: 5-HT2A Gq-mediated calcium flux functional assay; format: cell-based
[6] = target: 5-HT2B (Homo sapiens (Human), UniProt P41595); experiment: 5-HT2B Gq-mediated calcium flux functional assay; format: cell-based
Sequence of 5-HT2B (P41595 whole entry): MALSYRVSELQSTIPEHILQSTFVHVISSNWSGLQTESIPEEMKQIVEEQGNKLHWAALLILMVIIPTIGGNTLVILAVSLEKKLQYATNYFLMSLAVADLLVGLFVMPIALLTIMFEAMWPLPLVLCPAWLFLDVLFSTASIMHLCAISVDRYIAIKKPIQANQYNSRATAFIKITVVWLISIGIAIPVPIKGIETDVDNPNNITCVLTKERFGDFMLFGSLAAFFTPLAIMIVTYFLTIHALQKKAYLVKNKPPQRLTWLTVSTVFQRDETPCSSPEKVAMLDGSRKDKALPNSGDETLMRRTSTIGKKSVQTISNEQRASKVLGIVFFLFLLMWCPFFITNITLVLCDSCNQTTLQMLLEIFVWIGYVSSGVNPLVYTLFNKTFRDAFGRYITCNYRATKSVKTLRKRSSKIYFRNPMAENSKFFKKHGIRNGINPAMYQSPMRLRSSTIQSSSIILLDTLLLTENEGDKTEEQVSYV

[7] = IA = Inactive, N=1-3, read-out: 5-HT2C-Ca2+ FLUX pEC50 (converted)
[8] = IA = Inactive, N=1-3, read-out: 5-HT2A-Ca2+ FLUX pEC50 (converted)
[9] = IA = Inactive, N=1-3, read-out: 5-HT2B-Ca2+ FLUX pEC50 (converted)
[10] = read-out: HTR ED50 μmol/kg (95% CI)
[11] = read-out: HTR ED50 mg/kg (95% CI)

| Structure (SMILES) | melting point [°C] | EC50 [2] [nM] | 5-HT1A-cAMP Emax (% 5-HT) [2] [% 5-HT] | 5-HT2C-Ca2+ FLUX Emax (% 5-HT) ([3]; IA = Inactive, N=1-3) | 5-HT2A pKi ± SEM [4] | 5-HT2A-Ca2+ FLUX Emax (% 5-HT) ([5]; IA = Inactive, N=1-3) | also measured |
| --- | --- | --- | --- | --- | --- | --- | --- |
| CC(C)N(CCc1c[nH]c2ccc(F)cc12)C1CCC1 (as salt: hydrochloride) [compound 40, N-(2-(5-fluoro-1H-indol-3-yl)ethyl)-N-isopropylcyclobutanamine] | 191.6 to 193 | – | – | – | – | – | – |
| CCN(C)CCc1c[nH]c2c(F)cc(F)cc12 (as salt: hydrochloride) [compound 69, 2-(5,7-difluoro-1H-indol-3-yl)-N-ethyl-N-methylethan-1-amine] | 152.7 to 153.5 | – | – | – | – | – | – |
| CN(CCc1c[nH]c2ccc(F)cc12)C1CC1 (as salt: hydrochloride) [compound 160, N-(2-(5-fluoro-1H-indol-3-yl)ethyl)-N-methylcyclopropanamine] | 218.8 to 219.3 | – | – | – | – | – | – |
| CCCN(CCc1c[nH]c2c(F)cccc12)C1CCC1 (as salt: hydrochloride) [compound 162, N-(2-(7-fluoro-1H-indol-3-yl)ethyl)-N-propylcyclobutanamine] | 231.7 to 237.2 | – | – | – | – | – | – |
| CCCN(CC)CCc1c[nH]c2c(F)c(F)c(F)cc12 (as salt: hydrochloride) [compound 165, N-ethyl-N-[2-(5,6,7-trifluoro-1H-indol-3-yl)ethyl]propan-1-amine] | 188 to 188.8 | – | – | – | – | – | – |
| C=CCN(CCC)CCc1c[nH]c2ccc(F)cc12 (as salt: salt) [compound 35, N-(2-(5-fluoro-1H-indol-3-yl)ethyl)-N-propylprop-2-en-1-amine] | 175.1 to 177.2 | – | – | – | – | – | – |
| CCN(CC)CCc1c[nH]c2cc(F)ccc12 [6-F-DET, 6-fluoro-N,N-diethyltryptamine, reference compound] | – | – | – | – | – | – | HTR counts over baseline / induction of HTR [1]: inactive |
| CN(C)CCc1c[nH]c2ccccc12 [DMT, dimethyl tryptamine, reference compound] | – | – | – | – | – | – | Duration of HTR above baseline [1]: about 10 minutes |
| CCN(CCc1c[nH]c2ccc(F)cc12)C(C)C [Example 1, N-ethyl-N-(2-(5-fluoro-1H-indol-3-yl)ethyl)propan-2-amine] | 77.1 to 78.1 | 589 | 86.4 ± 2.6 | 107.6 ± 2.3 | 5.95 ± 0.07 | 102.6 ± 0.8 | EC50 [3]: 6.61 nM; EC50 [5]: 1.35 nM; EC50 [6]: 1.32 nM; 5-HT2B-Ca2+ FLUX Emax (% 5-HT) ([6]; IA = Inactive, N=1-3): 100.0 ± 0.6 % 5-HT |
| CCN(CC)CCc1c[nH]c2cccc(F)c12 [Example 8, N,N-diethyl-2-(4-fluoro-1H-indol-3-yl)ethan-1-amine] | – | – | – | – | 6.09 | – | HTR counts over baseline / induction of HTR [1]: inactive |
| CN1CCC(c2c[nH]c3ccc(F)cc23)C1 (stereo not drawn) [compound 15, 5-fluoro-3-(1-methylpyrrolidin-3-yl)-1H-indole] | 122.8 to 125.1 | – | – | – | 6.98 | – | – |
| CN1CCC(c2c[nH]c3cc(F)c(F)cc23)C1 (stereo not drawn) [compound 19, 5,6-difluoro-3-(1-methylpyrrolidin-3-yl)-1H-indole] | 119.5 to 120.3 | 2950 | 113.3 ± 4.0 | 70.5 ± 2.3 | 6.92 | 53.3 ± 3.6 | EC50 [3, 7]: 3.63 nM; EC50 [5, 8]: 3.89 nM; 5-HT2B-Ca2+ FLUX Emax (% 5-HT) ([6]; IA = Inactive, N=1-3): 32.2 ± 2.2 % 5-HT; EC50 [6, 9]: 1.51 nM |
| CN1CCC(c2c[nH]c3c(F)cccc23)C1 (stereo not drawn) [compound 23, 7-fluoro-3-(1-methylpyrrolidin-3-yl)-1H-indole] | 129 to 132.1 | 22.4 | 99.2 ± 1.7 | 26.6 ± 1.1 | 6.43 | 41.8 ± 1.6 | EC50 [3, 7]: 20.9 nM; EC50 [5, 8]: 8.51 nM; 5-HT2B-Ca2+ FLUX Emax (% 5-HT) ([6]; IA = Inactive, N=1-3): 19.7 ± 0.8 % 5-HT; EC50 [6, 9]: 4.37 nM |
| CCCN(CC)CC(=O)c1c[nH]c2ccc(F)cc12 [compound 24, 2-(ethyl(propyl)amino)-1-(5-fluoro-1H-indol-3-yl)ethan-1-one] | 203.4 to 205.6 | 0.49 | 20.5 ± 1.4 | – | – | 81.0 ± 2.4 | EC50 [5, 8]: 1410 nM |
| CN1CCC[C@H]1Cc1c[nH]c2ccc(F)cc12 [compound 27, (S)-5-fluoro-3-((1-methylpyrrolidin-2-yl)methyl)-1H-indole] | 135 to 136.4 | 562 | 88.2 ± 3.6 | 18.5 ± 0.7 | 5.57 | 34.4 ± 2.3 | EC50 [3]: 56.2 nM; EC50 [5]: 58.9 nM; EC50 [6]: 14.1 nM; 5-HT2B-Ca2+ FLUX Emax (% 5-HT) ([6]; IA = Inactive, N=1-3): 35.3 ± 1.3 % 5-HT |
| CN1CCC[C@@H]1Cc1c[nH]c2ccc(F)cc12 [compound 28, (R)-5-fluoro-3-((1-methylpyrrolidin-2-yl)methyl)-1H-indole] | 127.6 to 131.7 | 72.4 | 101.20 ± 1.7 | 92.8 ± 0.9 | 7.19 ± 0.03 | 91.1 ± 2.5 | EC50 [3]: 1.74 nM; EC50 [5]: 2.34 nM; EC50 [6]: 0.724 nM; 5-HT2B-Ca2+ FLUX Emax (% 5-HT) ([6]; IA = Inactive, N=1-3): 90.8 ± 1.1 % 5-HT |
| CN1CC(c2c[nH]c3ccc(F)cc23)C1 [compound 29, 5-fluoro-3-(1-methylazetidin-3-yl)-1H-indole] | 119 to 122.8 | 851 | 64.0 ± 3.5 | 28.5 ± 0.8 | 6.30 | – | EC50 [3, 7]: 49 nM |
| CCN(CCc1c[nH]c2ccc(F)cc12)C1CCC1 [compound 31, N-ethyl-N-(2-(5-fluoro-1H-indol-3-yl)ethyl)cyclobutanamine] | 89.4 to 90.3 | 22.4 | 100.7 ± 1.8 | 98.0 ± 1.9 | 6.26 ± 0.32 | 104.5 ± 1.8 | EC50 [3]: 57.5 nM; EC50 [5]: 2.04 nM; EC50 [6]: 2.51 nM; 5-HT2B-Ca2+ FLUX Emax (% 5-HT) ([6]; IA = Inactive, N=1-3): 96.5 ± 1.4 % 5-HT |
| CCCN(CC)CCc1c[nH]c2c(F)cc(OC)cc12 [compound 41, N-ethyl-N-(2-(7-fluoro-5-methoxy-1H-indol-3-yl)ethyl)propan-1-amine] | – | – | – | – | 6.15 ± 0.34 | – | ED50 [1, 10]: 3.56 µmol/kg; ED50 [1, 11]: 1.12 mg/kg |
| CN(CCc1c[nH]c2ccc(F)cc12)C1CCC1 [compound 51, N-(2-(5-fluoro-1H-indol-3-yl)ethyl)-N-methylcyclobutanamine] | 219.4 to 219.7 | – | – | – | 6.80 ± 0.02 | – | – |
| CCN(C)CCc1c[nH]c2c(F)cc(F)cc12 [compound 69, 2-(5,7-difluoro-1H-indol-3-yl)-N-ethyl-N-methylethan-1-amine] | – | – | – | – | 6.90 ± 0.002 | – | ED50 [1, 10]: 4.81 µmol/kg; ED50 [1, 11]: 1.32 mg/kg |
| CCN(C)CCc1c[nH]c2c(F)c(F)c(F)cc12 [compound 164, N-ethyl-N-methyl-2-(5,6,7-trifluoro-1H-indol-3-yl)ethan-1-amine] | 212.1 to 212.5 | – | – | 89.3 ± 1.3 | 6.90 ± 0.13 | 76.1 ± 1.1 | EC50 [3]: 18.6 nM; EC50 [5]: 6.46 nM; EC50 [6]: 6.17 nM; 5-HT2B-Ca2+ FLUX Emax (% 5-HT) ([6]; IA = Inactive, N=1-3): 33.2 ± 0.9 % 5-HT |
| CC(C)N(CCc1c[nH]c2ccc(F)cc12)C1CC1 [compound 168, N-(2-(5-fluoro-1H-indol-3-yl)ethyl)-N-isopropylcyclopropanamine] | 196.4 to 196.8 | – | – | – | 6.18 | – | – |
| CN(C)CCc1c[nH]c2cccc(O)c12 [psilocin, reference compound] | – | – | – | – | – | – | Duration of HTR above baseline [1]: about 35 minutes |
